Data from patent US20060100431A1, “Biologically active compounds” (Amura Therapeutics Limited, priority 2002, published 2006).

Experiments:
Type in all cases: biochemical
CPB2.8ΔCTE = biological target: T1, CPB2.8ΔCTE (Leishmania mexicana, UniProt P36400); experiment: Leishmania mexicana cysteine protease B (CPB) peptidase activity assay (Ki); details: Ki, inhibitors of Leismania mexicana CPB protease
T1 construct: Wild-type recombinant CPB without the C-terminal extention (i.e. CPB2.8ΔCTE); Dr. Jeremy Mottram (Wellcome Centre for Molecular Parasitology, University of Glasgow)
Summary of the method: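 Apparent Ki was derived by regression of activity against inhibitor concentration, assuming pure-competitive reversible binding. Reaction: 0.25 nM CPB lacking the C-terminal extension, pH 5.5 acetate buffer (1 mM EDTA, 200 mM NaCl, 10 mM DTT), 25 °C, followed by continuous substrate fluorescence.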

Wild-type cruzipain = Wild-type cruzipain (Trypanosoma cruzi, UniProt P25779); experiment: Trypanosoma cruzi cruzipain peptidase activity assay (Ki); details: read-out: Ki, inhibitors of cruzain and cruzipains
Summary of the method: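 Native cruzipain from T. cruzi Dm28 epimastigotes, 2.5 nM, in 100 mM sodium phosphate pH 6.75 with 1 mM EDTA and 10 mM L-cysteine, 25 °C, DMSO <1%. Rates taken from continuous fluorogenic substrate read; Ki by regression assuming reversible pure-competitive inhibition.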

Bovine cathepsin S = biological target: T2, Bovine cathepsin S (Bos taurus, UniProt P25326); experiment: Cathepsin S peptidase activity assay, bovine enzyme (Ki); details: species of cathepsin S not given; read-out: Ki, inhibitors of cathepsin S
T2 construct: purchased CN Biosciences
Description: Unless otherwise stated, all general chemicals and biochemicals were purchased from either the Sigma Chemical Company, Poole, Dorset, U.K or from Fisher Scientific UK, Loughborough, Leicestershire, U.K. Absorbance assays were carried out in flat-bottomed 96-well plates (Spectra; Greiner Bio-One Ltd., Stonehouse, Gloucestershire, U.K.) using a SpectraMax PLUS384 plate reader (Molecular Devices, Crawley, U.K.). Fluorescence high throughput assays were carried out in either 384-well microtitre plates (Corning Costar 3705 plates, Fisher Scientific) or 96-well ‘U’ bottomed Microfluor W1 microtitre plates (Thermo Labsystems, Ashford, Middlesex, U.K.). Fluorescence assays were monitored using a SpectraMax Gemini fluorescence plate reader (Molecular Devices). For substrates employing either a 7-amino-4-methylcoumarin (AMC) or a 7-amino-4-trifluoromethylcoumarin (AFC) fluorophore, assays were monitored at an excitation wavelength of 365 nm and an emission wavelength of 450 nm and the fluorescence plate reader calibrated with AMC. For substrates employing a 3-amino-benzoyl (Abz) fluorophore, assays were monitored at an excitation wavelength of 310 nm and an emission wavelength of 445 nm; the fluorescence plate reader calibrated with 3-amino-benzamide (Fluka). Unless otherwise indicated, all the peptidase substrates were purchased from Bachem UK, St Helens, Merseyside, UK. Substrates utilizing fluorescence resonance energy transfer methodology (i.e. FRET-based substrates) were synthesized at Incenta Limited using published methods (Atherton & Sheppard, Solid Phase Peptide Synthesis, IRL Press, Oxford, U.K, 1989) and employed Abz (2-aminobenzoyl) as the fluorescence donor and 3-nitro-tyrosine [Tyr(NO2)] as the fluorescence quencher (Meldal, M. and Breddam, K., Anal. Biochem, 195, 141-147, 1991). Hydroxyethylpiperazine ethanesulfonate (HEPES), tris-hydroxylmethyl aminomethane (tris) base, bis-tris-propane and all the biological detergents (e.g. CHAPS, zwittergents, etc.) were purchased from CN Biosciences UK, Beeston, Nottinghamshire, U.K. Glycerol was purchased from Amersham Pharmacia Biotech, Little Chalfont, Buckinghamshire, U.K. Stock solutions of substrate or inhibitor were made up to 10 mM in 100% dimethylsulfoxide (DMSO) (Rathburns, Glasgow, U.K.) and diluted as appropriately required. In all cases the DMSO concentration in the assays was maintained at less than 1% (vol./vol.).
Assay protocols were based on literature precedent (Table 4; Barrett, A. J., Rawlings, N. D. and Woessner, J. F., 1998, Handbook of Proteolytic Enzymes, Academic Press, London and references therein) and modified as required to suit local assay protocols. Enzyme was added as required to initiate the reaction and the activity, as judged by the change in fluorescence upon conversion of substrate to product, was monitored over time. All assays were carried out at 25±1° C.
Bovine cathepsin S, human cathepsin L, human cathepsin H and human cathepsin B were obtained from CN Biosciences. Recombinant human cathepsin S, human cathepsin K and human cathepsin X were obtained from Dr. Boris Turk (Josef Stefan Institute, Ljubljana, Slovenia). Unless otherwise stated, all peptidase activity assays were carried out in 10 mM bis-tris-propane (BTP), pH 6.5 containing 1 mM EDTA, 5 mM 2-mercaptoethanol and 1 mM CaCl2. Human cathepsin H activity assays were carried out in 10 mM BTP pH 6.5, 142 mM NaCl2, 1 mM CaCl2, 1 mM EDTA, 1 mM DTT, 0.035 mM Zwittergent 3-16. Human cathepsin K assays were carried out in 100 mM sodium acetate; pH 5.5 containing 20 mM L-cysteine and 1 mM EDTA (Bossard, M. J., et. al., J. Biol. Chem., 21, 12517-12524, 1996). Human cathepsin X assays were carried out in 100 mM sodium acetate; pH 5.5 containing 20 mM L-cysteine; 0.05% (w/v) Brij 35 and 1 mM EDTA (Santamaria, I., et. al., J. Biol. Chem., 273, 16816-16823, 1998; Klemencic, J, et al., Eur. J. Biochem., 267, 5404-5412, 2000).

human cathepsin L = biological target: T3, human cathepsin L (Homo sapiens, UniProt P07711); experiment: Cathepsin L peptidase activity assay (Ki); details: read-out: Ki, inhibitors of cathepsin L
T3 construct: purchased CN Biosciences
Summary of the method: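 Run at 25±1° C with DMSO under 1%: buffer was 10 mM BTP pH 6.5 containing 1 mM EDTA, 1 mM CaCl2 and 5 mM 2-mercaptoethanol. Enzyme (1 nM cathepsin L) was added last to start hydrolysis of Ac-Phe-Arg-AMC held at KM^app (~20 μM), followed kinetically by fluorescence at 365/450 nm.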

Measured: Ki

T3 sequence (P07711 114-333): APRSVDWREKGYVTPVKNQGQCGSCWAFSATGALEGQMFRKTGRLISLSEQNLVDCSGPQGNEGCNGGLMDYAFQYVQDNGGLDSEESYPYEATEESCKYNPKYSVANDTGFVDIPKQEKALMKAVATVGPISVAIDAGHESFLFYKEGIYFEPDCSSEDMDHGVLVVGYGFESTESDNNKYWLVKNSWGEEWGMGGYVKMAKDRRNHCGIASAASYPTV
T1 sequence (P36400 126-343, stated change not applied): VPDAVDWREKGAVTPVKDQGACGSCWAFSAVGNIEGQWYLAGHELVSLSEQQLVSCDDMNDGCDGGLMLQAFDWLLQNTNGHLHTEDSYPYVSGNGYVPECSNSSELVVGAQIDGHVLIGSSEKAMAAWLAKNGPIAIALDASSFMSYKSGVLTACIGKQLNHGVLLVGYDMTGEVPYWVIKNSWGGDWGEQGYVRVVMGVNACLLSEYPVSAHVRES
T2 sequence (P25326 115-331): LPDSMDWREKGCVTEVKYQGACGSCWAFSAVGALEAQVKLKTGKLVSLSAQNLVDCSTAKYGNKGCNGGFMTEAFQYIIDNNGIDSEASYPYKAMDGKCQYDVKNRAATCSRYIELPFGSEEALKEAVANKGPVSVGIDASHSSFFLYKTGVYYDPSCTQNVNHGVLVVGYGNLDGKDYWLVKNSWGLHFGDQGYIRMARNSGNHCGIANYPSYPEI
Wild-type cruzipain, sequence (P25779 whole entry): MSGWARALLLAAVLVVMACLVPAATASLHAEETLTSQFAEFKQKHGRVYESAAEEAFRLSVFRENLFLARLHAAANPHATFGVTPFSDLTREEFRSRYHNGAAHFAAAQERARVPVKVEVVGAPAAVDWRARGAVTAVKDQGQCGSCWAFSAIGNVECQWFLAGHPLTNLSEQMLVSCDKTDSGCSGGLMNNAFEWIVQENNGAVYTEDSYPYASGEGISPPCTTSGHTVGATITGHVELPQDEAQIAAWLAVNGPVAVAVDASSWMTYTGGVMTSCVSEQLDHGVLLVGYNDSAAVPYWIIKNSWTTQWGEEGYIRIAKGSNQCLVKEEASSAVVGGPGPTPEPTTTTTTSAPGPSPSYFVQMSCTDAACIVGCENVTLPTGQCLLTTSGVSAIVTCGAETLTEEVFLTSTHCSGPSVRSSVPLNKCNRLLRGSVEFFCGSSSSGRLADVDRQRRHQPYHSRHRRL

CC(C)C[C@H](NC(=O)c1ccc(N(C)C)cc1)C(=O)N1CC[C@@H]2[C@H]1C(=O)CN2C(=O)[C@H](C)NC(=O)OCc1ccccc1 [Example 145, (3aS,6aR)-((1S)-2-{4-[(2S)-2-(4-Dimethylamino-benzoylamino)-4-methyl-pentanoyl]-3-oxo-hexahydro-pyrrolo[3,2-b]pyrrole-1-yl}-1-methyl-2-oxo-ethyl)-carbamic acid benzyl ester]
< 5 µM: all assays above

CC(C)C[C@H](NC(=O)c1ccc(CN)cc1)C(=O)N1CC[C@@H]2[C@H]1C(=O)CN2C(=O)c1ccccc1 [Example 93, (3aR,6aS)-4-Aminomethyl-N-[(1S)-1-(4-benzoyl-6-oxo-hexahydro-pyrrolo[3,2-b]pyrrole-1-carbonyl)-3-methyl-butyl]-benzamide]
< 5 µM: all assays above

CC(C)C[C@H](NC(=O)c1cc2ccccc2o1)C(=O)N1CC[C@@H]2[C@H]1C(=O)CN2C(=O)c1cccnc1 [Example 16, (3aR,6aS)-Benzofuran-2-carboxylic acid {(1S)-3-methyl-1-[6-oxo-4-(pyridine-3-carbonyl)-hexahydro-pyrrolo[3,2-b]pyrrole-1-carbonyl]-butyl}-amide]
< 5 µM: all assays above

CC(C)C[C@H](NC(=O)c1cccc(CN)c1)C(=O)N1CC[C@@H]2[C@H]1C(=O)CN2C(=O)c1ccccc1 [Example 92, (3aR,6aS)-3-Aminomethyl-N-[(1S)-1-(4-benzoyl-6-oxo-hexahydro-pyrrolo[3,2-b]pyrrole-1-carbonyl)-3-methyl-butyl]-benzamide]
< 5 µM: all assays above

CC[C@H](NC(=O)OCc1ccccc1)C(=O)N1CC(=O)[C@@H]2[C@H]1CCN2C(=O)[C@H](CC(C)C)NC(=O)c1ccc(N(C)C)cc1 [Example 159, (3aS,6aR)-((1S)-1-{4-[(2S)-2-(4-Dimethylamino-benzoylamino)-4-methyl-pentanoyl]-3-oxo-hexahydro-pyrrolo[3,2-b]pyrrole-1-carbonyl}-propyl)-carbamic acid benzyl ester]
< 5 µM: all assays above

COc1cccc(C(=O)N2CC(=O)[C@@H]3[C@H]2CCN3C(=O)[C@H](CC(C)C)NC(=O)c2ccc(N(C)C)cc2)c1 [Example 65, (3aR,6aS)-4-Dimethylamino-N-{(1S)-1-[4-(3-methoxy-benzoyl)-6-oxo-hexahydro-pyrrolo[3,2-b]pyrrole-1-carbonyl]-3-methyl-butyl}-benzamide]
< 5 µM: all assays above

CC(C)C[C@H](NC(=O)c1cnc2ccccc2n1)C(=O)N1CC[C@@H]2[C@H]1C(=O)CN2C(=O)c1ccccc1 [Example 12, (3aR,6aS)-Quinoxaline-2-carboxylic acid [(1S)-1-(4-benzoyl-6-oxo-hexahydro-pyrrolo[3,2-b]pyrrole-1-carbonyl)-3-methyl-butyl]-amide]
< 5 µM: Wild-type cruzipain | Bovine cathepsin S | human cathepsin L

CC(C)C[C@H](NC(=O)OCc1ccccc1)C(=O)N1CC(=O)[C@@H]2[C@H]1CCN2C(=O)[C@H](CC(C)C)NC(=O)c1ccc(N(C)C)cc1 [Example 37, (3aS,6aR)-((1S)-1-{4-[(2S)-2-(4-Dimethylamino-benzoylamino)-4-methyl-pentanoyl]-3-oxo-hexahydro-pyrrolo[3,2-b]pyrrole-1-carbonyl}-3-methyl-butyl)-carbamic acid benzyl ester]
< 5 µM: all assays above

CC(C)C[C@H](NC(=O)c1ccc(N(C)C)cc1)C(=O)N1CC[C@@H]2[C@H]1C(=O)CN2C(=O)[C@@H]1CCCN1C(=O)OCc1ccccc1 [Example 154, (3aS,6aR)-(2S)-2-{4-[(2S)-2-(4-Dimethylamino-benzoylamino)-4-methyl-pentanoyl]-3-oxo-hexahydro-pyrrolo[3,2-b]pyrrole-1-carbonyl}-pyrrolidine-1-carboxylic acid benzyl ester]
< 5 µM: all assays above

CC(C)C[C@H](NC(=O)c1ccc(N2CCOCC2)cc1)C(=O)N1CC[C@@H]2[C@H]1C(=O)CN2C(=O)c1ccccc1 [Example 85, (3aR,6aS)-N-[(1S)-1-(4-Benzoyl-6-oxo-hexahydro-pyrrolo[3,2-b]pyrrole-1-carbonyl)-3-methyl-butyl]-4-morpholin-4-yl-benzamide]
< 5 µM: all assays above

CC(C)C[C@H](NC(=O)c1cc2ccccc2o1)C(=O)N1CC[C@@H]2[C@H]1C(=O)CN2C(=O)c1ccccc1 [Example 9, (3aR,6aS)-Benzofuran-2-carboxylic acid [(1S)-1-(4-benzoyl-6-oxo-hexahydropyrrolo[3,2-b]pyrrole-1-carbonyl)-3-methyl-butyl]-amide]
< 5 µM: Wild-type cruzipain | Bovine cathepsin S | human cathepsin L

Cc1c(C(=O)N[C@@H](CC(C)C)C(=O)N2CC[C@@H]3[C@H]2C(=O)CN3C(=O)c2cccnc2)oc2ccccc12 [Example 17, (3aR,6aS)-3-Methyl-benzofuran-2-carboxylic acid {(1S)-3-methyl-1-[6-oxo-4-(pyridine-3-carbonyl)-hexahydro-pyrrolo[3,2-b]pyrrole-1-carbonyl]-butyl}-amide]
< 5 µM: all assays above

CCc1ccc(C(=O)N[C@@H](CC(C)C)C(=O)N2CC[C@@H]3[C@H]2C(=O)CN3C(=O)c2ccccc2)cc1 [Example 171, (3aR,6aS)-N-[(1S)-1-(4-Benzoyl-6-oxo-hexahydro-pyrrolo[3,2-b]pyrrole-1-carbonyl)-3-methyl-butyl]-4-ethyl-benzamide]
< 5 µM: all assays above

Cc1c(C(=O)N[C@@H](CC(C)C)C(=O)N2CC[C@@H]3[C@H]2C(=O)CN3C(=O)c2ccccc2)oc2ccccc12 [Example 10, (3aR,6aS)-3-Methyl-benzofuran-2-carboxylic acid [(1S)-1-(4-benzoyl-6-oxo-hexahydro-pyrrolo[3,2-b]pyrrole-1-carbonyl)-3-methyl-butyl]-amide]
< 5 µM: Wild-type cruzipain | Bovine cathepsin S | human cathepsin L
